Measurements as given in patent US11919902B2, “Aryl-bipyridine amine derivatives as phosphatidylinositol phosphate kinase inhibitors” (HiberCell, Inc., priority 2017, dated 2024).

Legend:
[1] = target: T1, PIP4K2A (full length protein, SignalChem) (Homo sapiens, UniProt P48426); test: Kinase Assay PIP4K2 A (Sprint); ADP-Glo biochemical assay; conditions: Table 2; compounds listed under IC50 range headings
T1 construct: 4 nM PIP4K2A (full length protein, SignalChem); purchased SignalChem
T1 sequence (P48426 1-406): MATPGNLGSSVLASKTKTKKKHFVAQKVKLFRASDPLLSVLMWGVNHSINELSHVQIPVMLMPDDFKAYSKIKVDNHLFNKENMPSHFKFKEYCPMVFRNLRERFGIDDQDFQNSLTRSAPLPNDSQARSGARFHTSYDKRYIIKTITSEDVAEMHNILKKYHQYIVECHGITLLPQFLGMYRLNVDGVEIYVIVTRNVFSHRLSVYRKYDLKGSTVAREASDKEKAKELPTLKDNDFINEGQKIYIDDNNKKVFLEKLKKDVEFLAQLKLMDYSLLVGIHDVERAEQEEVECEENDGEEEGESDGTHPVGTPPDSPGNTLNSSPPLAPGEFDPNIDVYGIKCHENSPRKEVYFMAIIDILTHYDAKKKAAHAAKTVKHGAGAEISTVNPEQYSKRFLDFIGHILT
Description: Dilution series of the compounds were prepared in DMSO at 100 times the final assay concentration (n1=n0/3 in 10 points). The compounds were further diluted to three times the assay concentration in assay buffer (20 mM MOPS pH 7.2, 25 mM magnesium chloride, 0.005% Tween 20). 6 μL of the diluted compounds were added to a 384 well assay plate followed by 9 μL of a mix consisting of 4 nM PIP4K2A (full length protein, SignalChem) and 100 μM PI(5)P diC8 (Tebu-Bio). Enzyme and compounds were pre-incubated at room temperature for 15 min.
Then 3 μL of a solution containing 60 μM ATP (Promega) in assay buffer was added to the wells containing compound and enzyme and mixing was performed by pipetting several times. The reaction was incubated at room temperature for 1 h. Then 18 μL of ADP-Glo™ Reagent (Promega) was added to stop the kinase reaction and deplete the unconsumed ATP, mixing was performed by pipetting several times. The plate was incubated at room temperature for 40 min before addition of 36 μL of Kinase Detection Reagent (Promega) to convert ADP to ATP and introduce luciferase and luciferin to detect ATP. The reaction was incubated at room temperature for 40 min before the luminescence was measured in a in a Victor 3V 1420 multilabel counter (Perkin Elmer).
Percent inhibition of the compounds as compared to dimethyl sulfoxide treated control samples was calculated. Compound concentration versus percent inhibition were fitted to generate IC50 values.

GST tagged PIP4KtypeIIB = target: T2, GST tagged PIP4KtypeIIB (Homo sapiens, UniProt P78356); test: Trans-FI P kinase assay PIP4K2B (PIP4KtypeIIB inhibition assay); type: biochemical; conditions: Table 4; compounds listed under IC50 range headings; 100 uM GTP, 5 nM PIP4KIIB; read-out: Trans-FI P kinase assays: PIP4K2B IC50
T2 construct: made in house; host or cells: E. coli
T2 sequence (P78356 1-416): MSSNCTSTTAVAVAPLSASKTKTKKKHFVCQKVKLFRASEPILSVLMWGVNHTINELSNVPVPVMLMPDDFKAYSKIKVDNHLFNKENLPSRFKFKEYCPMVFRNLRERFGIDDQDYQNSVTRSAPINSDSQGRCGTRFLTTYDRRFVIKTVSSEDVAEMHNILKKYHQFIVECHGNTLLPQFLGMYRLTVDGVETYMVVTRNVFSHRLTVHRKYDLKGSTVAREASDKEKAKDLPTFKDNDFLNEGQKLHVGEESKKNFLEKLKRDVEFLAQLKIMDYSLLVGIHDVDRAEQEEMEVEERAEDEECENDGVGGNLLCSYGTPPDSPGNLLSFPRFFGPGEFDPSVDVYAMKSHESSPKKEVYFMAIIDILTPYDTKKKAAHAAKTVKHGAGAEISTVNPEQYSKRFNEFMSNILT
Excerpt: GST tagged PIP4KtypeIIA and B enzymes were overexpressed in E. Coli and purified to >80% homogeneity. Phosphatidyl inositol-5-phosphate (PI5P, Cat. #850152, Avanti Polar Lipids Inc.) was used as the lipid substrate and phosphatidyl ethanolamine (DOPE 18:1, Cat. #850725, Avanti Polar Lipids Inc.) was used as the carrier lipid for assays. Ultrapure ATP and GTP was purchased from Bellbrooke Labs. ADP Glo reagents were obtained from Promega. Transcreener FI reagent was obtained from Bellbrooke labs.
1. HEPES buffer mix: 200 mM HEPES pH 7.4, 50 mM MgCl2, 0.05% v/v triton×100
2. HNE buffer: 20 mM HEPES, pH 7.4, 100 mM NaCl, 0.5 mM EGTA
3. H:E buffer: 30 mM HEPES, pH 7.4, 1 mM EGTA
GST-tagged PIP4KtypeIIB (3.4 uL, 2.77 mg/mL) was diluted to 5 mL using HNE buffer to yield 5× enzyme stock (25 nM)
Lipid Preparation: In a 10 mL pyrex glass vial, lug of PI5P and lug of DOPE were suspended in 2.5 mL of HEPES buffer mix and 2.5 mL of H:E buffer. The contents were mixed and sonicated for 3 min to yield a translucent lipid stock.
Compound Preparation: Compounds were stored as 5 mM stocks in neat DMSO as room temperature in glass vials. 5 mM stocks were diluted to 2 mM and then serially diluted (3×) in neat DMSO in 96 well polypropylene plates. From the serially diluted stocks, 3 uL was delivered into 250 uL of 25% DMSO (in water) to generate 5× compound stocks. Typically, the highest compound conc. was 24 uM.
The assay volume was kept at 25 uL. To each well of the reaction plate, 10 uL of lipid stock (1:1 ratio PI5P:DOPE) was delivered. This was followed by the addition of 5 uL of compound in 25% DMSO. Then, to each well, 5 uL of 25 nM (5×) typeIIB enzyme was delivered. The contents were mixed well and incubated for 1 h at 27 C. After 1 h, reaction was initiated by adding 5 uL of 500 uM GTP and the contents were mixed well with a multi-channel pipetteman. The final concentration of the reagents are as follows: 50 mM HEPES, pH 7.3, 10 mM MgCl2, 20 mM NaCl, 0.01% v/v triton-X100, 5% DMSO, 100 uM GTP, 80 uM (2 ug) PI5P, 2 ug DOPE, and 5 nM PIP4KIIB Typically, the highest conc. of compounds was 4.8 uM and the lowest conc. was 0.
After 2 h, the reaction was quenched by adding 25 uL of transcreener FI reagent. The contents were incubated at RT for 1 h and the Fluorescence (Ex: 584 Em: 623) was read using Molecular Devices Paradigm plate reader. […] The blanks were averaged and subtracted from all other wells. Using a calibration curve, RFU was converted to uM GDP (product). IC50 was calculated by plotting the residual activity (expressed as % No inhibitor control) vs. log [Inh. conc.] Table 2 represents PI5P4K activity of compounds (Example No.) of the invention arranged in accordance with the inhibition of PIP4K2 A kinase assay.

SMILES	IC50 [1] [nM]	IC50 (GST tagged PIP4KtypeIIB) [nM]
CN(C)C(=O)c1ccc(-c2cc(-c3ccnc(C(C)(C)C)c3)cnc2N)nc1 [Example 106, 2′-amino-2″-(tert-butyl)-N,N-dimethyl-[2,3′:5′,4″-terpyridine]-5-carboxamide]	1000 to 2500	–
CN(C)C(=O)c1ccc(-c2cc(-c3ccnc(C#N)c3)cnc2N)nc1 [Example 107, 2′-amino-2″-cyano-N,N-dimethyl-[2,3′:5′,4″-terpyridine]-5-carboxamide]	1000 to 2500	–
CN(C)C(=O)c1ccc(-c2cc(-c3ccnnc3)cnc2N)nc1 [Example 108, 2′-amino-N,N-dimethyl-5′-(pyridazin-4-yl)-[2,3′-bipyridine]-5-carboxamide]	2500 to 5000	–
CN(C)C(=O)c1ccc(-c2cc(-c3ccnc4ccncc34)cnc2N)nc1 [Example 112, 2′-amino-N,N-dimethyl-5′-(1,6-naphthyridin-4-yl)-[2,3′-bipyridine]-5-carboxamide]	1000 to 2500	–
CN(C)C(=O)c1ccc(-c2cc(-c3cccnc3)cnc2N)nc1 [Example 119, 2′-amino-N,N-dimethyl-[2,3′:5′,3″-terpyridine]-5-carboxamide]	< 5000	–
CN(C)C(=O)c1ccc(-c2cc(-c3cnc4c(c3)c(-c3cccnc3)cn4C)cnc2N)nc1 [Example 121, 2′-amino-N,N-dimethyl-5′-(1-methyl-3-(pyridin-3-yl)-1H-pyrrolo[2,3-b]pyridin-5-yl)-[2,3′-bipyridine]-5-carboxamide]	100 to 1000	100 to 1000
CN(C)C(=O)c1ccc(-c2cc(-c3cnc4c(c3)c(-c3cncnc3)cn4C)cnc2N)nc1 [Example 122, 2′-amino-N,N-dimethyl-5′-(1-methyl-3-(pyrimidin-5-yl)-1H-pyrrolo[2,3-b]pyridin-5-yl)-[2,3′-bipyridine]-5-carboxamide]	100 to 1000	1000 to 2500
Cn1cc(-c2cncc(-c3ccc(N4CCCC4=O)cc3)c2)c2cc(C(C)(C)O)cnc21 [Example 154, 1-(4-(5-(5-(2-hydroxypropan-2-yl)-1-methyl-1H-pyrrolo[2,3-b]pyridin-3-yl)pyridin-3-yl)phenyl)pyrrolidin-2-one]	< 5000	–
COC(C)(C)c1cnc2c(c1)c(-c1cncc(-c3ccc(N4CCCC4=O)cc3)c1)cn2C [Example 155, 1-(4-(5-(5-(2-methoxypropan-2-yl)-1-methyl-1H-pyrrolo[2,3-b]pyridin-3-yl)pyridin-3-yl)phenyl)pyrrolidin-2-one]	< 5000	–
COc1ncc(-c2cncc(-c3ccc(N4CCCC4=O)cc3)c2)c2cnn(C)c12 [Example 156, 1-(4-(5-(7-methoxy-1-methyl-1H-pyrazolo[3,4-c]pyridin-4-yl)pyridin-3-yl)phenyl)pyrrolidin-2-one]	< 5000	–
CN(C)C/C=C/C(=O)Nc1ccc(C(=O)NCc2cc(-c3cnc(N)c(-c4ccc(C(=O)N(C)C)cn4)c3)ccn2)cc1 [Example 189, (E)-2′-amino-2″-((4-(4-(dimethylamino)but-2-enamido)benzamido)methyl)-N,N-dimethyl-[2,3′:5′,4″-terpyridine]-5-carboxamide]	1000 to 2500	–
CN(C)C/C=C/C(=O)Nc1cccc(C(=O)NCc2cc(-c3cnc(N)c(-c4ccc(C(=O)N(C)C)cn4)c3)ccn2)c1 [Example 192, (E)-2′-amino-2″-((3-(4-(dimethylamino)but-2-enamido)benzamido)methyl)-N,N-dimethyl-[2,3′:5′,4″-terpyridine]-5-carboxamide]	1000 to 2500	–
O=C(c1cc2c(-c3cncc(-c4ccc(N5CCCC5=O)cc4)c3)ccnc2[nH]1)N1CCCC(O)(C2CC2)C1 (stereo not drawn) [Example 210, 1-(4-(5-(2-(3-cyclopropyl-3-hydroxypiperidine-1-carbonyl)-1H-pyrrolo[2,3-b]pyridin-4-yl)pyridin-3-yl)phenyl)pyrrolidin-2-one]	100 to 1000	100 to 1000
COC(=O)c1cc2c(-c3cncc(-c4ccc(-c5nncn5C(C)C)cc4)c3)ccnc2[nH]1 [Example 211, methyl 4-(5-(4-(4-isopropyl-4H-1,2,4-triazol-3-yl)phenyl)pyridin-3-yl)-1H-pyrrolo[2,3-b]pyridine-2-carboxylate]	5 to 100	1 to 10
CN(C)C(=O)c1ccc(-c2cc(-c3ccnc4[nH]ncc34)cnc2N)nc1 [Example 212, 2′-amino-N,N-dimethyl-5′-(2H-pyrazolo[3,4-b]pyridin-4-yl)-[2,3′-bipyridine]-5-carboxamide]	5 to 100	–
CN1CCn2c(cc3c(-c4cncc(-c5ccc(C(=O)N6CCC7(CC7)C6)cc5)c4)ccnc32)C1=O [Example 230, 4-(5-(4-(5-azaspiro[2.4]heptane-5-carbonyl)phenyl)pyridin-3-yl)-7-methyl-8,9-dihydropyrido[3′,2′:4,5]pyrrolo[1,2-a]pyrazin-6(7H)-one]	100 to 1000	100 to 1000
O=C1CCCN1c1ccc(-c2cncc(-c3c4n(c5ncccc35)CCC4)c2)cc1 [Example 299, 1-(4-(5-(7,8-dihydro-6H-pyrido[3,2-b]pyrrolizin-5-yl)pyridin-3-yl)phenyl)pyrrolidin-2-one]	5 to 100	–
O=C(NCc1cccc2c1COB2O)c1cc2c(-c3cncc(-c4ccc(N5CCCC5=O)cc4)c3)ccnc2[nH]1 [Example 301, N-((1-hydroxy-1,3-dihydrobenzo[c][1,2]oxaborol-4-yl)methyl)-4-(5-(4-(2-oxopyrrolidin-1-yl)phenyl)pyridin-3-yl)-1H-pyrrolo[2,3-b]pyridine-2-carboxamide]	5 to 100	10 to 100
